This is an account of results in BindingDB's records for doi:10.1074/jbc.M113.496463 (National Institutes of Health, National Institutes of …, 2013).

“And” between values parts separate entries of the source, which are not always exact repeats. Identical values can stand only once.

The target of experiment [1] is T1, Fanconi anemia group J protein (Homo sapiens, UniProt Q9BX63).
T1 sequence (Q9BX63 whole entry): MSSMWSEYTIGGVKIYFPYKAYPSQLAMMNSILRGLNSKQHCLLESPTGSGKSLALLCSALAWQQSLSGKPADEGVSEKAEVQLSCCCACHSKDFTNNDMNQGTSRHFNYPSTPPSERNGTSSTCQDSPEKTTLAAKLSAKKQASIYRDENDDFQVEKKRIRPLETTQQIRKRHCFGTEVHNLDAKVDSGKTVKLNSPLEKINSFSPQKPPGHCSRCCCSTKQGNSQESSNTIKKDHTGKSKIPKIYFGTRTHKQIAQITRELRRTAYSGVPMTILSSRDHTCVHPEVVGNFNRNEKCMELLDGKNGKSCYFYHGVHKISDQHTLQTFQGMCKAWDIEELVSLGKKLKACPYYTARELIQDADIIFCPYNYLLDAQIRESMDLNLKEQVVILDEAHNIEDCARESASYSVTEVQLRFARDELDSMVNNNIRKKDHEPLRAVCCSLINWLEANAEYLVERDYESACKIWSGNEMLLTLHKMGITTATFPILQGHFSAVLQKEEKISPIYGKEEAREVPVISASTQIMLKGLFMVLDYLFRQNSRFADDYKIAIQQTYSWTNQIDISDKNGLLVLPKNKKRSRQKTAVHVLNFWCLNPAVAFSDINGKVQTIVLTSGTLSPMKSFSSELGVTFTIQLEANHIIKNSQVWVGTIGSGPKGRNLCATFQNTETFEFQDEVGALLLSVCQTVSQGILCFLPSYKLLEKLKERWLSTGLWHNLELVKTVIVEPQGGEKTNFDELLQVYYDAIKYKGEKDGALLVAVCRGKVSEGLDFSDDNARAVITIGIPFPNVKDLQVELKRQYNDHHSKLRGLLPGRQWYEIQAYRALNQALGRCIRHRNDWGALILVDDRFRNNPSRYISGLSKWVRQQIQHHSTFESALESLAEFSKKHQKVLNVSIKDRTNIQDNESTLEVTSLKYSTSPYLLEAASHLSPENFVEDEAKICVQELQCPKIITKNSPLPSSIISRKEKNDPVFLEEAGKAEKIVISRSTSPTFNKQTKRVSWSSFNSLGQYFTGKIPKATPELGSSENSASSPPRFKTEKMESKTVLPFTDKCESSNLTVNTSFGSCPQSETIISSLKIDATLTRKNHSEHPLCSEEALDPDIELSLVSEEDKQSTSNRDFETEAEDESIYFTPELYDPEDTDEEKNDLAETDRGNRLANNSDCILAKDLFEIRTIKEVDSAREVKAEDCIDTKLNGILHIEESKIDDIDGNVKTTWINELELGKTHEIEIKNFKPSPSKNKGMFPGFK
The experiment is described as follows: Helicase Assays. As to conditions: pH 8. On the procedure: (§1) Standard helicase reaction mixtures (20μl) containing 5 fmol of the indicated TP-G4 or OX-1-G2' DNA substrates or forked duplex DNA substrate (0.25 nM DNA substrate concentration), 1mM ATP, and the indicated concentrations of the specified helicase were as previously described for FANCJ [Wu et al., Mol. Cell. Biol., 28:4116-4128] and DDX11 [Wu et al., J. Biol. Chem., 287:1007-1021]. Helicase reactions for XPD and DinG were performed in buffer that contained 20mM Tris-HCl (pH 8.0), 10mM KCl, 1mM dithiothreitol, 5mM MgCl2, and 100 μg/ml BSA. Reactions were performed at 37 °C for 15 min in the presence of 1 mM ATP, the DNA substrates mentioned above, and the indicated helicase protein concentrations. Forthe unimolecular Poly(A) Zic1-G4 DNA substrate, helicase reactions were performed in reaction buffer containing a 20-fold excess of peptide-nucleic acid complementary oligonucleotide [Giri et al., Nucleic Acids Res., 39:7161-7178]. G4 helicase reactions were terminated by th

Experiment [2] addresses T2, ATP-dependent DNA helicase DinG (Escherichia coli (strain K12), UniProt P27296).
T2 sequence (P27296 whole entry): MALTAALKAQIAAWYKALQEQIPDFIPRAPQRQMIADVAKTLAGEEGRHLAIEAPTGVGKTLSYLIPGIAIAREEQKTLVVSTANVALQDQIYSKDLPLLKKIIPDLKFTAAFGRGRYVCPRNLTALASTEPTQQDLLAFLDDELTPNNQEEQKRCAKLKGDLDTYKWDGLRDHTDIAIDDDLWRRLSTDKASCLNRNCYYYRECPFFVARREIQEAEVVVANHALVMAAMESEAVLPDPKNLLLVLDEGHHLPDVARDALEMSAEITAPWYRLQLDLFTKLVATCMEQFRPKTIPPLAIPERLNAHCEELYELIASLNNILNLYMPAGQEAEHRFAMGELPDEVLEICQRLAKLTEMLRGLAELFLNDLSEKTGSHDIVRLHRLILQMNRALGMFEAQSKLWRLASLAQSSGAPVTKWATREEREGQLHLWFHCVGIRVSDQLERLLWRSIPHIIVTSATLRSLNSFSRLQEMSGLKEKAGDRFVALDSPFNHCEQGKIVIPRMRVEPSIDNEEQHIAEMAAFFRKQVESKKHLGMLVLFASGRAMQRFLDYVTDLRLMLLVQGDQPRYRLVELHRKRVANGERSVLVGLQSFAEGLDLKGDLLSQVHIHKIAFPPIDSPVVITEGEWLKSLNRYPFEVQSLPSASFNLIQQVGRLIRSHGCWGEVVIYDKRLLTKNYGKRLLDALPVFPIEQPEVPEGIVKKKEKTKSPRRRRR
The experiment is described as follows: Helicase Assays. As to conditions: pH 8. On the procedure: as §1

With `Cc1oc2nc1-c1nc(co1)-c1nc(co1)-c1nc(co1)-c1nc(co1)-c1nc(co1)C1=NC(CS1)c1nc-2c(C)o1` (stereo unspecified) [Telomestatin (TMS)], the IC50 in experiment [1] was 0.0022 µM and 0.0019 µM and 0.002 µM; in experiment [2] it was 0.0015 µM and 0.001 µM.
Consider `C[n+]1cccc2cc(NC(=O)c3ccc4ccc5ccc(C(=O)Nc6ccc7c(ccc[n+]7C)c6)nc5c4n3)ccc21` [Phen-DC6], for which, in experiment [2], the IC50 is 0.06 µM and 0.055 µM.
The same measure, in the same setting: the figure for `C[n+]1cc(NC(=O)c2ccc3ccc4ccc(C(=O)Nc5cc6ccccc6[n+](C)c5)nc4c3n2)cc2ccccc21` is 0.05 µM and 0.13 µM.
On to `C[n+]1ccc(-c2c3nc(c(-c4cc[n+](C)cc4)c4ccc([nH]4)c(-c4cc[n+](C)cc4)c4nc(c(-c5cc[n+](C)cc5)c5ccc2[nH]5)C=C4)C=C3)cc1`, for which the IC50 in experiment [1] was 2.3 µM and 2.9 µM and 4.9 µM; in experiment [2] it was 1.1 µM and 1.2 µM.
